Source: patent US20240174718A1, “RYANODINE RECEPTOR INHIBITOR COMPOUNDS AND METHODS RELATING THERETO” (Vanderbilt University, priority 2022, published 2024)
Like-named read-outs stand apart in the source and are kept apart here.

Assay: In vivo pharmacokinetic study after intraperitoneal administration
Parameters: species or system mouse
Conditions: for half-life: 3 mg/kg
Method: FIGS. 11(A-B) show in vivo pharmacokinetics in mice for a compound of the present invention. […] N=3 mice. Plasma collected serially at 0.167, 0.333. 0.5, 1, 3, and 8 hours post-administration. […] Individual data points (grey) shown alongside mean values with connecting lines.
In vivo pharmacokinetic study—The pharmacokinetic study was carried out by a contract research organization, Pharmaron, Inc. Mice were housed with free access to food and water. All protocols and procedures were compliant with Animal care and Use Application approved by the Institution Animal Care and Use Committee of Pharmaron, Inc., (protocol #PH-DMPK-VUMC-22-003) following the guidance of the Association for Assessment and Accreditation of Laboratory Animal Care (AAALAC). An ent-B1 dose of 3 mg/kg (drug/body weight) was used. Three male CDI mice, age 6-8 weeks, were selected for the study. Mice were injected intraperitoneally with ent-B1 dissolved in solution containing 10% Tween 20, 10% DMSO, 40% water, and 40% PEG-400 (v/v, 5 mL/kg), with a final concentration of 0.6 mg/mL. 30 μL of blood was collected from each animal at 10, 20, 30, 60, 180, and 480 minutes following drug administration and centrifuged at 5000×g, 4° C. for 5 minutes to obtain plasma. The samples were stored at −75±15° C. until analysis.
LC-MS/MS analysis of ent-B1—LC-MS/MS with electronspray ionization in the positive ion mode setting was used to detect ent-B1 followed by multiple reaction monitoring of precursor and product ions as follows: ent-B1 (mass-to-charge ratio [m/z] 640.18 to 214.00). Mouse plasma was quantified using nine standards (0.5-1000 ng/ml) and four quality control levels (1, 2, 50, 800 ng/ml) prepared independently of those used for the standard curve. 20 μL of standards, quality control samples, and unknown samples (10 μL plasma and 10 μL blank solution) were added to 200 μL acetonitrile containing internal standard (dexamethasone; [m/z] 393.40 to 373.30) for protein precipitation. The samples were vortexed for 30 seconds, centrifuged for 15 minutes at 4000 rpm and […], and the supernatant was diluted five times with water. Samples were then loaded into SIL-30AC autosampler and 10 μL was injected into a Shimadzu LC-30AD Series HPLC coupled to an AB Sciex Triple Quad 5500 mass spectrometer. Analytes were separated on a Raptor Biphenyl column (50×2.1 mm, 2.7 um) using a 95:5 (v/v) mobile phase mixture of 0.1% formic acid in water (mobile phase A) and 0.1% formic acid in acetonitrile (mobile phase B) at the flow rate of 0.6 ml/min. The gradient for mobile phase B was increased to 95% over 1.4 minutes with a total run time of 2.5 minutes for each sample. All quality controls and standards met the following acceptance criteria 1) standard curve of at least five standards are within 15% of their nominal concentrations and at least 50% at each quality control level (low, medium, and high) were within 15% of their nominal concentrations.
Pharmacokinetic analysis—Plasma concentrations of ent-B1 at each time point were imported to Phoenix WinNonlin® 8.0 software (Certara USA, Inc., Princeton, NJ). Plasma concentration time profiles for individual animals were analyzed by noncompartmental analysis using model 200 (Plasma; Single Extravascular Dose; Linear Log Trapezoidal Method) to approximate the elimination rate constant (ke), half-life (T1/2), maximum observed plasma concentration (Cmax), time to maximum observed plasma concentration (Tmax), the area under the plasma concentration-time curve from zero to infinity (AUCinf).

[1] = male, mouse, plasma, ip, 3 mg/kg intraperitoneal, CD1 mice

## CCCCC[C@@H]1OC(=O)[C@@H](C)N(C)C(=O)[C@H](CCCCC)OC(=O)[C@@H](C)N(C)C(=O)[C@H](CCCCC)OC(=O)[C@@H](C)N(C)C1=O (single isomer, unassigned) [ent-B1]
3 mg/kg i.p.
  time of peak plasma concentration after i.p. injection: 10 min
3 mg/kg i.p., CD1 mice
  clinical observation during PK experiment: no abnormality
3 mg/kg intraperitoneal, CD1 mice
  ke (elimination rate constant): 0.932 ± 0.139 h⁻¹
male, CD1, mouse, plasma, ip, 3 mg/kg i.p., mice, read-out: mean elimination half-life (t1/2)
  half-life: 45.4 min
male, CD1, mouse, plasma, ip, 3 mg/kg intraperitoneal, CD1 mice, read-out: T1/2 (elimination half-life) (converted)
  half-life: 45.4 ± 7.38 min
male, CD1, mouse, plasma, ip, 3 mg/kg i.p., read-out: mean peak plasma concentration (Cmax)
  Cmax: 2300 nM
male, mouse, ip, 3 mg/kg intraperitoneal, CD1 mice, plasma, read-out: Cmax
  Cmax: 1460 ng/mL
[1]
  AUC(0-inf): 1020 ± 184 ng·h/mL
  CL/F: 50.2 mL/min/kg
  Tmax: 10 min
male, mouse, plasma, ip, 3 mg/kg intraperitoneal, CD1 mice, read-out: Vz/F
  Vd/F: 3.32 ± 1 L/kg
mouse, in vivo
  peak plasma concentration in vivo relative to IC50 in cardiomyocytes: more than 10 fold
